These results are taken from US10189794B2, “Heteroaryl compounds and uses thereof” (Celgene CAR LLC, priority 2013, dated 2019).

The subject of one assay is Huh7 cells. Description: Cell proliferation, Huh7 (CellTiter Glo). It counts as cell-based. The settings on record: Homo sapiens, Huh-7; Huh7; 120 hr; read-out: Cell Proliferation GI50 (nM) HUH. The method, then: The growth inhibition (GI50) values were determined by Graph Pad Prism.
(Cellular ATP, detected with luciferase, serves as a proxy for viable cell number.)

The test system of a further assay is MDA-MB-453 cells. Kind of assay: Cell proliferation, MDA-MB-453 (CellTiter Glo). The settings on record: Homo sapiens; MDA-MB-453; 96 hr; read-out: Cell Proliferation GI50 (nM) MDA. Format: cell-based.
The next assay concerns the target FGFR4-WT (Homo sapiens (Human), UniProt P22455). Kind of assay: Omnia assay for potency assessment against FGFR4 enzyme. Format: biochemical. Conditions: method a: Invitrogen FGFR4-WT 10 nM, ATP 300 uM, Y10-Sox 10 uM; read-out: FGFR4 IC50. The method, then: A 10× stock solution of FGFR4-WT (PR4380C), (from Invitrogen, Carlsbad, Calif.) corresponding to method a in Table 7, was prepared as described below. Alternatively, a 10× stock solution of FGFR4-WT (F01-11G), (SignalChem, Richmond, BC) corresponding to method b in Table 7, was prepared as described below. A solution of 1.4×ATP (AS001A) and 5×Tyr-Sox conjugated peptide substrate (KNZ3101) were prepared in IX kinase reaction buffer consisting of 20 mM Tris, pH 7.5, 5 mM MgCl2, 1 mM EGTA, 5 mM β-glycerophosphate, 5% glycerol (10× stock, KB002A) and 0.2 mM DTT (DS001A). […] The serially diluted compounds were prepared on a Tecan EVO100. A second addition of 10 μl of Tyr-Sox FGFR4 substrate was added to each well and the kinase reactions were started with the addition of 35 μL of 1.4×ATP. The reactions were monitored every 71 seconds for 240 minutes at λex360/λem485 in a Synergy plate reader from BioTek (Winooski, Vt.).

Assay [1] deals with T1, pFGFR4 in MDA-MB-453 cells (Homo sapiens (Human), UniProt P22455, Y367C). Kind of assay: Washout experiment (duration of pFGFR4 inhibition). Format: cell-based. The settings on record: 1000-2000 nM for 1 hr, washed, up to 24 hr. The method, then: The cells were allowed to settle down for 4 hrs and were then maintained in low-serum (0.1% FBS) media overnight.
The following morning, the media was removed and the cells were treated with 1000-2000 nM of test compound in low-serum media for 1 hr. The cells were washed free of test compound (3×) with PBS (Invitrogen). One set of cells was immediately lysed as indicated above as the 0 hr time point. The remaining cells were incubated with the appropriate complete growth media (10-20% FBS) for 1, 2, 4, 8, 16 (in certain circumstances) and 24 hr. DMSO (0.5%) controls were collected at all time points.

Assay [2] addresses FGFR4 in MDA-MB-453 cells (Homo sapiens (Human), UniProt P22455, Y367C). Kind of assay: Target occupancy assay with biotinylated covalent probe I-127. Format: cell-based. Conditions: MDA-MB-453 lysate; 2 μM biotinylated probe I-127. The method, then: In order to assess free FGFR4 protein a biotinylated covalent probe was utilized. […] The reaction was incubated for 2 hr at room temperature. The samples and probe mixture were transferred to a FGFR4-coated MSD plate for 2 hr at room temperature. MSD signals were obtained with an anti-streptavidin Sulfo-tag (Meso Scale) antibody for 1 hr at room temperature.
If a compound completely (100%) covalently modies FGFR4 no free FGFR4 should be available for covalent modification by the biotinylated probe and subsequent binding to streptavidin and detection.

A further assay addresses pFGFR4 in Huh7 cells (Homo sapiens (Human), UniProt P22455). Kind of assay: FGFR4 signaling (phospho-FGFR4) in Huh7 cells, MSD. Format: cell-based. Conditions: Meso Scale assay (MSD), 1 hr treatment, read-out: Signaling EC50 (nM) pFGFR4 (Huh).
The target of assay [3] is T1, pFGFR4 in MDA-MB-453 cells. Description: FGFR4 signaling (phospho-FGFR4) in MDA-MB-453 cells. Format: cell-based. Conditions: Method A immunoblotting (Western blotting), 1 hr treatment. Background: Immunoblotting shows a protein as a band on a membrane.
Procedure: Huh7 cells were grown in DMEM (Invitrogen, Carlsbad, Calif.) supplemented with 10% FBS (Invitrogen) and 1% Penicillin-Streptomycin (P/S, Lonza, Walkersville, Md.).
For the MSD and ELISA assays, total FGFR4 antibodies were obtained from R&D Systems (Minneapolis, Minn.) and used at 1:500. For the immunoblotting (Western blotting) assay, total FGFR4 antibody was obtained from Santa Cruz (Santa Cruz, Calif.) and used at 1:1000. Phospho-FGFR antibodies were obtained from Cell Signaling (Danvers, Mass.) or R&D Systems and used at 1:1000. The phopho-FGFR antibody from Cell Signaling was used for immunoblotting, whereas the phopho-FGFR antibody from R&D was used for MSD and ELISA assays. Secondary antibodies were used at 1:10,000. The goat anti-mouse IgG IRDye 800CW antibody was obtained from LiCor Biosciences (Lincoln, Nebr.) and the goat anti-rabbit IgG Alexa Fluor 680 was obtained from Invitrogen. The anti-rabbit Sulfo-tag and anti-streptavidin Sulfo-tag antibodies was obtained from Meso Scale Discovery (Gaithersburg, Md.), and were used at 1:1000 and 1:5000, respectively.
For MDA-MB-453 cells signaling, cells were grown in 96-well poly-D-lysine plates (BD Bioscience, San Jose, Calif.) to 90% confluence, and were then incubated in low-serum (0.1% FBS) media for 16-18 hr. […] After treatment, the cells were washed with cold PBS (Invitrogen) and were immediately lysed by freeze/thawing 3× in 32 μL of cold Cell Extraction Buffer (Invitrogen) which was supplemented with Complete Protease inhibitors (Roche, Indianapolis, Ind.) and PhosphoSTOP (Roche) phosphatase inhibitors.
Phospho-protein signals were quantitated using Odyssey Infrared Imaging (Li-Cor Biosciences).
To assess phospho-FGFR signaling, the blots were probed with anti-Phospho-FGFR (Y653/Y654) and total anti-FGFR antibodies. The phospho-FGFR signal was normalized to total FGFR expression for each sample. […] The normalized data was fitted using a sigmoidal curve analysis program (Graph Pad Prism version 5) with variable Hill slope to determine the EC50 values.
After treatment, the cells were washed with cold PBS (Invitrogen), and were immediately lysed by freeze/thawing 3× in 32 μL of cold Cell Extraction Buffer (Invitrogen), which was supplemented with Complete Protease inhibitors (Roche) and PhosphoSTOP (Roche) phosphatase inhibitors.
MSD plates (Meso Scale Discovery) were coated with total FGFR-4 antibodies overnight at 4° C. A lysate (25 μL) was added to the MSD plate overnight at 4° C. The MSD signals were obtained by incubating with a phospho-FGFR antibody (R&D Systems) and an anti-rabbit sulfo-tag antibody (Meso Scale), for 2 hr at room temperature. […] The data was fitted using a sigmoidal curve analysis program (Graph Pad Prism version 5) with variable Hill slope to determine the EC50 values.
MDA-MB-453 cells were grown in 96-well poly-D-lysine plates (BD Bioscience, San Jose, Calif.) to 90% confluence. The cells were then incubated in low-serum (0.1% FBS) media for 16-18 hr. […] After treatment, the MDA-MB-453 cells were washed with cold PBS (Invitrogen) and were immediately lysed by freeze/thawing 3× in 32 μL of cold Cell Extraction Buffer (Invitrogen), which was supplemented with Complete Protease inhibitors (Roche) and PhosphoSTOP (Roche) phosphatase inhibitors.
Nunc-immuno plates (96-well; Sigma, St. Louis, Mo.) were coated with total FGFR-4 antibodies overnight at 4° C. A lysate (25 μL) was added to the plate for 2 hr at room temperature. A phospho-FGFR detection antibody (100 μL) was added per well for 2 hr at room temperature, followed by a goat anti-rabbit HRP antibody (100 μL) for 45 min. […] The data was fitted using a sigmoidal curve analysis program (Graph Pad Prism version 5) with variable Hill slope to determine the EC50 values.

“Also recorded” adds a separate entry of the source. A value given as a limit tells only on which side of the number the result lay.

A word on the IC50: it is the concentration that gives 50% inhibition. In general, EC50 refers to the concentration that produces a half-maximal response.

T1 sequence (P22455 22-802 Y367C): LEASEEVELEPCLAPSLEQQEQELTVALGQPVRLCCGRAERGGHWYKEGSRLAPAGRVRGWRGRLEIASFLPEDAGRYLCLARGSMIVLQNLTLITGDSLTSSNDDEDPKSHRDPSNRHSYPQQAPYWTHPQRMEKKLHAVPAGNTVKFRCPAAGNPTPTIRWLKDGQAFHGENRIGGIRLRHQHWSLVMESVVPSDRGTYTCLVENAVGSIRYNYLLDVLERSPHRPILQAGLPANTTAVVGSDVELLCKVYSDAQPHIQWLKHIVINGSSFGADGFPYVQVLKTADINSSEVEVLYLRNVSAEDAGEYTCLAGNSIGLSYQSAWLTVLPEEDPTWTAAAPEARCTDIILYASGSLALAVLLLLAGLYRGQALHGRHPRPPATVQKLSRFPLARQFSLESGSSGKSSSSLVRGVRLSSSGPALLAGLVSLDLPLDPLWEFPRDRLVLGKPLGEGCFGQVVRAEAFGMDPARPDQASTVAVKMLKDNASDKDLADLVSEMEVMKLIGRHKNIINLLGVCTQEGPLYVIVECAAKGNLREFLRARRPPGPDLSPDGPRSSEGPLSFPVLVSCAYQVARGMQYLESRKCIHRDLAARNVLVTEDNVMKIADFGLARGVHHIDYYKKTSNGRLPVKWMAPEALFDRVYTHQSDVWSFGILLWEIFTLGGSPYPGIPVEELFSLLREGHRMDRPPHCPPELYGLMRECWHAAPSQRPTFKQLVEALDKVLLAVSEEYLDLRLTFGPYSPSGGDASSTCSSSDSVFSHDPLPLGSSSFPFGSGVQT
Chain of FGFR4-WT (P22455 22-802): as the sequence (P22455 22-802 Y367C) above, with C346Y counted along it
Chain of FGFR4 in MDA-MB-453 cells (P22455 22-802 Y367C): as the sequence (P22455 22-802 Y367C) above
Chain of pFGFR4 in Huh7 cells (P22455 22-802): as the sequence (P22455 22-802 Y367C) above, with C346Y counted along it

In the case of `C=CC(=O)NC1CCCCC1Nc1ncc2c(n1)N(Cc1cscn1)C(=O)N(c1c(Cl)c(OC)cc(OC)c1Cl)C2` (racemic) [I-69], the GI50 in the assay on Huh7 cells lay within 501 to 999 nM; in the assay with MDA-MB-453 cells, 101 to 500 nM. In addition, at FGFR4-WT, the IC50 was less than 100 nM. Also, the “duration of action against pFGFR4 signalling after washout” value (from here on “duration of action”) in assay [1] is “prolonged inhibition of autophosphorylation of FGFR4; also recorded: prolonged duration of action”.
As for `C=CC(=O)Nc1ccccc1Nc1ncc2c(n1)N(Cc1cccc(NC(=O)CC)c1)C(=O)N(c1c(Cl)c(OC)cc(OC)c1Cl)C2` [I-1], the values for the GI50 in the assay with Huh7 cells and in the assay with MDA-MB-453 cells were 101 to 500 nM and less than 100 nM, respectively. The EC50 (in assay [2]; at pFGFR4 in Huh7 cells) was less than 100 nM in each case. Also, the IC50 on FGFR4-WT is less than 100 nM. Further, the “duration of action” value in assay [1] is listed as “prolonged duration of action; also recorded: has PDA”.
In the case of `CCC(=O)Nc1cccc(CN2C(=O)N(c3c(Cl)c(OC)cc(OC)c3Cl)Cc3cnc(Nc4ccccc4NC(=O)CC)nc32)c1` [I-234], the EC50 was 101 to 500 nM in assay [3] and more than 1000 nM in assay [2]. Further, in the assay with MDA-MB-453 cells, the GI50 is more than 1000 nM. In addition, the “duration of action” value in assay [1] is “does not show prolonged duration of action; also recorded: does not have PDA”.
